In patent US20050080096A1, “Condensed heterocyclic compounds” (priority 2002, published 2005):

Target: recombinant human PARP (Homo sapiens, UniProt P09874)
Assay: PARP Inhibitory Activity (In vitro assay)
Assay type: biochemical
Conditions: 32P-NAD, activated DNA, 15 minutes at room temperature, pH8.0
Procedure: The recombinant human PARP (5.3 mg protein/ml) were incubated with a test compound in a 100 μl reaction buffer containing the indicated concentration of 1 mCi/ml ^32P-NAD, 50 mM Tris-HCl, 25 mM MgCl2, 1 mM DTT (dithiothreitol), 0.05 mM NAD (nicotinamido adenine dinucleotide), lmg/mi activated DNA, pH8.0. Incubation was for 15 minutes at a room temperature and the reaction was stopped by the addition of 200 μl of ice-cold 20% trichloroacetic acid followed by rapid filtration through GF/B filters. The filters were treated with scintillation fluid and acid-insoluble counts were measured for quantification of unit activity.
PARP Inhibitory Activity (%)=
[1-(enzyme activity with test compound)/(enzyme activity with vehicle)]×100

recombinant human PARP, sequence (P09874 whole entry): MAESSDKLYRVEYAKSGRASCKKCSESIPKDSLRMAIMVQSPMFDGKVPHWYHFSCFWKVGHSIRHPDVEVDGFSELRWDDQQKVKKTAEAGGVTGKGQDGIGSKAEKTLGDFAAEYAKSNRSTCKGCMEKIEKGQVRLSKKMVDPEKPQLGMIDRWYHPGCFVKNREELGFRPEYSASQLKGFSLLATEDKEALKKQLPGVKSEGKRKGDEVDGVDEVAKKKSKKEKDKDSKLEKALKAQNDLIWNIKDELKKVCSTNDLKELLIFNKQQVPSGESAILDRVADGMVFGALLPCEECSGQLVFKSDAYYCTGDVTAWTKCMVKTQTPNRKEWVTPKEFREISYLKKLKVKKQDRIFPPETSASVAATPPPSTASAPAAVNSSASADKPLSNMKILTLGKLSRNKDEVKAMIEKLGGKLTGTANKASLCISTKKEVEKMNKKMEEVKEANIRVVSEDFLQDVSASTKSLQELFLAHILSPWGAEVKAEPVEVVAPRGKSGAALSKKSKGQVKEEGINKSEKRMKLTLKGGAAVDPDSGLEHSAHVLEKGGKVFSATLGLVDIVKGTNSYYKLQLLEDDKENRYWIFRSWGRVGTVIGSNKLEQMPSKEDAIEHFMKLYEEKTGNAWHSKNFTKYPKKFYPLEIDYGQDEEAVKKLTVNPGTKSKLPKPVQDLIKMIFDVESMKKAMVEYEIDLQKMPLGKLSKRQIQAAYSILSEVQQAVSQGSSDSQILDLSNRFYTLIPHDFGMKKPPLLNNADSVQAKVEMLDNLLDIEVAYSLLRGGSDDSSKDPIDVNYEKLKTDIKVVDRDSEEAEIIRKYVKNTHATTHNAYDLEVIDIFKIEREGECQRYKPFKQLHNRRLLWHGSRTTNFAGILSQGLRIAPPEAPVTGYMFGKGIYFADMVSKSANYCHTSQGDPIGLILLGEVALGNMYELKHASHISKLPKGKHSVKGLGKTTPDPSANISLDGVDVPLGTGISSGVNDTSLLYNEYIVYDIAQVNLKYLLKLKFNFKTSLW

IC50	Structure (SMILES)
< 500 nM	O=c1[nH]c(CCCN2CC=C(c3ccccc3)CC2)nc2c1CCCC2 [Compound A, 2-[3-(4-Phenyl-3,6-dihydro-1(2H)-pyridyl)propyl]-5,6,7,8-tetrahydro-4(3H)-quinazolinone]
< 500 nM	O=c1[nH]c(CCCN2CC=C(c3ccccc3)CC2)nc2c1CSCC2 [Compound B, 2-[3-(4-Phenyl-3,6-dihydro-1(2H)-pyridyl)propyl]-3,5,7,8-tetrahydro4H-thiopyrano[4,3-d]pyrimidin-4-one]
< 500 nM	Cn1c2c(c3ccccc31)CCN(CCCCc1n[nH]c(=O)c3ccccc13)C2 [Compound D]

Structure (SMILES)	IC50
O=c1[nH]nc(CCCCN2CC=C(c3ccccc3)CC2)c2ccccc12 [Compound C, 4-[4-(4-Phenyl-3,6dihydro-1(2H)-pyridyl)butyl]-1(2H)-phthalazinone]	< 500 nM
